# Source: patent US9593062B2, “Means and methods for treating and/or preventing natural AHR ligand-dependent cancer” (priority 2011, dated 2017)
# Where two headings read alike, the source gives them in different places.
# Assays:
# AHR [1] = target: T1, AHR (Homo sapiens, UniProt P35869); test: ethoxyresorufin-O-deethylase (EROD) assay, induction of AHR target gene CYP1A1; type: cell-based
# T1 sequence (P35869 11-848): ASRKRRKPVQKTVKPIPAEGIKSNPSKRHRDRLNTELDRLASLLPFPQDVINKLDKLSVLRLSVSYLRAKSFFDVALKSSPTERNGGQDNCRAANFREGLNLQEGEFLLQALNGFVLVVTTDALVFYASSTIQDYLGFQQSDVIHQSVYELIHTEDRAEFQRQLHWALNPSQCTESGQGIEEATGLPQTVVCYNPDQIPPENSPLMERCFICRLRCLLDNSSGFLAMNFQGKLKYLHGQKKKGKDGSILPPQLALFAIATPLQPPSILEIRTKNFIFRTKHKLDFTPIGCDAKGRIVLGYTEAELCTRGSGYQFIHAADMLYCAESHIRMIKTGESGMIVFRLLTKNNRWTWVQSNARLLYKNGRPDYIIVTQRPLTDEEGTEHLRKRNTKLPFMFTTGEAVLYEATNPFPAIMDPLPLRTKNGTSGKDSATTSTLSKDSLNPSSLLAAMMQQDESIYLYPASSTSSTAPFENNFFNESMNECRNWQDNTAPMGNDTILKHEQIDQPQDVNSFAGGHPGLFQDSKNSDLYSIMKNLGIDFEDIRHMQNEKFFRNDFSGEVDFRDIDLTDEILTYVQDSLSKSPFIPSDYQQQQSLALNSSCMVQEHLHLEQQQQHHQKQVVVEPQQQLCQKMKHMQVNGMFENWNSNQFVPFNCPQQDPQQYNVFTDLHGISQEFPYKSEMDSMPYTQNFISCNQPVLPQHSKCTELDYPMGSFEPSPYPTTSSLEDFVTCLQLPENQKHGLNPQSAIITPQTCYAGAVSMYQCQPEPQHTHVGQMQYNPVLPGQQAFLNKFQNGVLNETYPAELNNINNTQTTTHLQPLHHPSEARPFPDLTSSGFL
# Source text: Such an inhibition may occur if the compound binds to an interaction domain of the AHR or its ligand binding domain and thereby inhibits the biological function of the AHR as specified elsewhere herein. Preferably, the inhibitor blocks the ligand binding domain for kynurenin, i.e. interacts with the ligand binding domain of the PAS-B domain or the ligand binding domain formed by Tyr310, Phe324, His326 and Arg352 (amino acid positions corresponding to human AHR). Alternatively, the compound may elicit an allosteric effect on the AHR polypeptide resulting in an inhibition of the biological function as well. An indirect inhibition can be elicited by a compound which reduces or prevents the transcription and/or translation of AHR polypetides and, thus, the amount of available AHR polypeptides in a cell. The AHR inhibitor shall at least reduce the AHR activity to a statistically significant extent. Of course, preferably, the inhibitor will reduce the AHR activity below the detectable limits. […] The activity of AHR can be detected by determining induction of the gene expression of its endogenous target gene CYP1A1 by an ethoxyresorufin-O-deethylase (EROD) assay.
# AHR [2] = target: T2, AHR (Mus musculus, UniProt P30561); test: AHR nuclear translocation (GFP-tagged AHR, mouse hepatoma cells); type: cell-based; conditions: after 1 h; 50 μM Kyn
# T2 construct: expressed in transfected cells; host or cells: Tao BpRc1c mouse hepatoma cells
# T2 sequence (P30561 10-848): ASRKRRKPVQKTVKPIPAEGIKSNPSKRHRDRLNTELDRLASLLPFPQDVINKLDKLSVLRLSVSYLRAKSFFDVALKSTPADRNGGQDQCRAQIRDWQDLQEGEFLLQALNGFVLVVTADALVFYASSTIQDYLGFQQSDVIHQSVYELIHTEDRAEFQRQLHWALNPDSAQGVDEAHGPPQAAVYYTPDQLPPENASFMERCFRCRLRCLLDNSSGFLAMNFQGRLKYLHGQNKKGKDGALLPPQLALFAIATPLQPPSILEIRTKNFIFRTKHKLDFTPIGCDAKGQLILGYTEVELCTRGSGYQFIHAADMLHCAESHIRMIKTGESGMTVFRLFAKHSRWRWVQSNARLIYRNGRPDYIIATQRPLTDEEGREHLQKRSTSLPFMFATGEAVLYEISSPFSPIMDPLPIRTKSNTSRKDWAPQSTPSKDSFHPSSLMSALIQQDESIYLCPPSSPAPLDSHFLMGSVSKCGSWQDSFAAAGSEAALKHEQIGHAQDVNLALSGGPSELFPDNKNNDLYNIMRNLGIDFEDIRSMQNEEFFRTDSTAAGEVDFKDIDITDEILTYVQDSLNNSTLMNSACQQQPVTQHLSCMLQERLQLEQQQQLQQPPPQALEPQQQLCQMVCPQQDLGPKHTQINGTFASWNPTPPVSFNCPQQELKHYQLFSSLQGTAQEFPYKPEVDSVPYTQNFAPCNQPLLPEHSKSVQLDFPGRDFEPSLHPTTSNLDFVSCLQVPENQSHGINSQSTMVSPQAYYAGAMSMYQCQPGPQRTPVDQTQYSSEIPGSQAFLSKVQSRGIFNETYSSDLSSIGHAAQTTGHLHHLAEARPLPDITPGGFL
# Method: For detection of AHR translocation 7000 Tao BpRc1c cells with a GFP-tagged AHR per well were exposed to 50 μM Kyn or 50 μM Trp, fixed in 3.7% formaldehyde in PBS, permeabilised in 0.1% Triton X100, incubated with 1 μg/ml Hoechst 33342 (Invitrogen) and imaged on a BD Pathway™ Imager 855 in a non-confocal mode using a 20× U-Apo 340 objective (Olympus, NA 0.75). Further analysis of fluorescence intensity was performed using the Attovision software (BD Biosciences). In addition, the AHR protein content in the nuclear and the cytoplasmic fractions of LN-229 glioma cells was compared by immunoblotting.
# T cells = test: T cell proliferation (mixed leukocyte reaction, TCR-stimulated T cells); type: cell-based, human
# Method: Glioma cells were seeded in 96-well plates in RPMI 1640 containing 10% FBS, 100 U/ml penicillin and 100 μg/ml streptomycin. 24 h after seeding […] irradiated (30 Gy) PBMC as stimulators and 2×10^5 PBMC from unrelated donors as responders were added. Six-day MLR were performed and cultures were pulsed with [3H]-methylthymidine (PerkinElmer, Waltham, Mass., USA) for the last 18 h. Cells were harvested, and radionuclide uptake was measured by scintillation counting. Experiments were repeated with six unrelated PBMC donors.
# glioma cells = test: Motility, clonogenic survival and sphere formation of glioma cells; type: cell-based, human
# Method: Tumor weight was calculated using the equation: tumor weight (g)=(length (cm)×width (cm)2)×0.5. e, IFN-γ-release of T cells of mice bearing subcutaneous Tdo-expressing tumors (black bar) in comparison to T cells of mice bearing Tdo-deficient tumors (white bar) after restimulation with glioma lysates measured by ELISpot (n=3). f, Lysis of GL261 murine glioma cells by spleen cells of mice with Tdo-expressing GL261 tumors in comparison to those with a subcutaneous Tdo-deficient GL261 tumors measured by chromium release (n=4). g, Quantification of the migrated distances of sh-c (open squares) and sh-TDO (solid circles) cells into a collagen matrix (n=3, P=0.004, 0.0005 and 0.01 for 24, 48 and 72 h, respectively). h, Clonogenic survival of sh-c (white bar) and sh-TDO (black bar) U87 cells (n=3). i, Matrigel boyden chamber assay of U87 glioma cells in the absence or presence of 70 μM Trp without or with 30 μM or 60 μM Kyn (n=3). j, Clonogenic survival of LN-18 glioma cells in the absence or presence of 70 μM Trp without or with 30 μM or 60 μM Kyn (n=3). k, Representative cranial MRIs, H&E and nestin stainings of CD1 nu/nu mice implanted with sh-c (upper panel) or sh-TDO (lower panel) U87 glioma cells. […]
# AHR response genes = test: Microarray analysis of Kyn-treated U87 glioma cells; type: cell-based, human; conditions: U87, 100 μM Kyn, 8 h and 24 h
# Method: U87 glioma cells were treated with 100 μM Kyn for 8 h or 24 h, after which the cells were harvested and RNA isolated using the RNAeasy-Kit (Qiagen). The RNA was subjected to microarray analyses as detailed in the Supplementary Methods. For each of the four treatments (8 h, 24 h, Kyn-treated, untreated) two arrays were hybridised and the mean log 2 ratios of gene expression in Kyn-treated vs. untreated samples were calculated. Further analyses of the data are detailed in the Supplementary Methods. For clinical samples microarray and clinical data were acquired from the REpository for Molecular BRAin Neoplasia DaTa (REMBRANDT) (Supplementary Methods). Survival analysis within the data set of untreated primary glioblastoma (n=362) of The Cancer Genome Atlas (TCGA) network was performed using the Kaplan-Meier-analysis module of the R2 microarray analysis and visualisation platform (http://r2.amc.nl).
# AHR [3] = target: T1, AHR
# Method: Dual luciferase/renilla assays were performed as detailed in the Supplementary Methods. For analysis of DRE-driven reporter gene activity in response to various Trp metabolites, the pGL3-promotor expression plasmid and the control plasmid pRL-SV40, expressing renilla luciferase were used (Promega, Heidelberg, Germany).
# AHR [4] = target: T3, AHR (Mus musculus, UniProt P30561)
# T3 sequence (P30561 1-848): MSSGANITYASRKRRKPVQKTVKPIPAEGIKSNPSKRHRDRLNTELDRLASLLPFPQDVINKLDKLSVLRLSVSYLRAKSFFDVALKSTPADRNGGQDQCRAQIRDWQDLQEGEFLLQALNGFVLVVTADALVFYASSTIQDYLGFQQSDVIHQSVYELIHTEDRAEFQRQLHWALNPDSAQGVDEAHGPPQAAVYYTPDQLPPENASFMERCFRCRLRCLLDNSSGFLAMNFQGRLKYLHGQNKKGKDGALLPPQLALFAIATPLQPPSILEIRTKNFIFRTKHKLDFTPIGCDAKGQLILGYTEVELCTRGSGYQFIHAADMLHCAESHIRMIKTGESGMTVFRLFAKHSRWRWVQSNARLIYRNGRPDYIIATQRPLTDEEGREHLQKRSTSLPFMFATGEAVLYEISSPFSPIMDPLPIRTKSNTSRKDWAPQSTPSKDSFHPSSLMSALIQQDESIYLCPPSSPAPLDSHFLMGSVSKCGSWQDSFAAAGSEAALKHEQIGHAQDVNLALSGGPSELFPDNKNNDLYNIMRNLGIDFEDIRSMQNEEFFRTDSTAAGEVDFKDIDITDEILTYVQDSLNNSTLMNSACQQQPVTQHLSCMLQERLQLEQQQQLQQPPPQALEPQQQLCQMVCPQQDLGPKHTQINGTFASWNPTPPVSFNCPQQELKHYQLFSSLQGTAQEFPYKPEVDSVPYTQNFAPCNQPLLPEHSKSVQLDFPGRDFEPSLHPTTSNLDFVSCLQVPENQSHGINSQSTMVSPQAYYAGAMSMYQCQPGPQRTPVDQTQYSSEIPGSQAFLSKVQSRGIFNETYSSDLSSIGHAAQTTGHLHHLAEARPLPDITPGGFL
# Source text: The data distribution is represented by box plots, showing the 25th and 75th percentile together with the median, whiskers represent the 10th and 90th percentile, respectively (P<0.001, one way ANOVA on ranks, followed by Dunns' method). d, AHR Western blots of two different nuclear and cytoplasmic fractions each of control (1,2), Kyn-treated (3,4) and TCDD-treated (5,6) human LN-229 glioma cells. e, Dioxinresponsive element (DRE) chemical activated luciferase gene expression in U87 glioma cells treated with indicated Kyn concentrations (n=2). f, Radioligand binding assay with indicated concentrations of L-3H-Kyn using mouse liver cytosol from Ahr-proficient and Ahr-deficient mice.
# L-3H-Kyn with a specific activity of 11 Ci/mmol was obtained from Quotient Bioresearch (Radiochemicals) Ltd. (Cardiff, UK). The binding assays with L-3H-Kyn using mouse liver cytosol from Ahr-proficient and Ahr-deficient mice were performed. Specific binding was defined as the difference of radioactivity between Ahr-proficient and Ahr-deficient cytosol.
# AHR [5] = target: T1, AHR; test: Inhibition of ligand-induced AHR activation and AHR-regulated gene expression by an AHR antagonist; type: cell-based; design: Malignant glioma cell lines as well as GIC express the AHR constitutively; endogenous in cells
# Method: TDO expression was analysed by immunohistochemistry in human tumors. Its relevance for Trp degradation was determined using genetic knockdown or overexpression of TDO. Trp and Kyn were measured in cell culture supernatants, human sera and xenograft tissue by HPLC. Mixed leukocyte reactions, chromium release, ELISpot and staining of immune cells in tumor tissues were used to assess the immune effects of TDO activity. Cell cycle analysis, matrigel and spheroid invasion assays, scratch assays, sphere formation assays and clonogenicity assays were employed to analyse the autocrine effects of TDO activity. All animal procedures followed the institutional laboratory animal research guidelines and were approved by the governmental authorities. Orthotopic implantation of human glioma cells with and without stable knockdown of TDO into CD1nu/nu mice, s.c. injection of these cells into NK-depleted or wildtype CD1nu/nu mice and s.c. injection of murine Tdo-proficient and Tdo-deficient GL261 cells into syngeneic C57BL/6N mice were performed to analyse the autocrine and paracrine effects of TDO activity in vivo. Microarray analysis of Kyn-treated human glioma cells was performed to identify signalling pathways activated by Kyn. Analysis of AHR translocation, DRE-luciferase assays and radioligand binding assays confirmed activation of the AHR by Kyn. […]
EC50 (AHR [1]) [µM],EC50 (AHR [3]) [µM],Kd (AHR [4]) [µM],Activation of the AHR and upregulation of AHR-regulated gene expression in response to Kyn (AHR [5]; agonist Kyn),Compound,Translocation of the AHR into the nucleus (AHR [2]),Proliferation of T cell receptor-stimulated CD4+ and CD8+ T cells (T cells),Allogeneic T cell proliferation with TDO knockdown glioma cells (T cells; 100 μM Kyn added to sh-TDO U87 cells (FIG. 2b)),"Motility and clonogenic survival of glioma cells (glioma cells; absence of Trp, 30 or 60 μM Kyn (FIG. 2i,j))",Sphere formation of GIC (glioma cells; glioma-initiating cells),Induction of AHR response genes (AHR response genes),"Activation of the AHR by Kyn, TCDD and 3-MC (AHR [5]; three ligands: Kyn, TCDD, 3-methylcholanthrene)"
12.3,36.6,~4,–,Kynurenin,led to translocation of the AHR into the nucleus,concentration-dependently inhibited,prevented the restoration of T cell proliferation,restored motility and clonogenic survival,enhanced,broad induction of AHR response genes,–
–,–,–,inhibited,"COc1ccc(-c2cc(=O)c3ccccc3o2)cc1OC [3,4-DMF, 3,4-dimethoxylflavone]",–,–,–,–,–,–,inhibited the activation of the AHR by all three ligands
